Test results as given in patent publication US8003801B2 (The Scripps Research Institute, priority 2005, dated 2011).
Entries after “also recorded” stand apart in the source; their conditions may differ. Where two headings read alike, the source gives them in different places.

Columns and labels:
[1] = system: 1A9/PTX10, Taxol-resistant 1A9 cell line (β270 Phe→Val); assay: 72 hour growth-inhibition (cytotoxicity) assay, 1A9/PTX10 cells; type: cell-based, human; settings: for IC50: Homo sapiens, 1A9/ptx-10; for RRp (relative resistance), 1A9/PTX10: IC50 of 1A9/PTX10 divided by IC50 of the parental cell line 1A9; for RAEpoB (relative activity), 1A9/PTX10: ratio of IC50 of EpoB to IC50 of the tested compound in the concurrent assay
[2] = system: A2780/AD10, drug-resistant clone of human ovarian carcinoma A2780 overexpressing P-glycoprotein; assay: 72 hour growth-inhibition (cytotoxicity) assay, A2780/AD10 cells; type: cell-based; settings: for IC50: Homo sapiens, A2780, 72 hour growth inhibition, sulforhodamine-B staining, mean of 3-5 experiments ± SEM; for RRp (relative resistance), A2780/AD10: IC50 of A2780/AD10 divided by IC50 of the parental cell line
[3] = system: KB-31 human epidermoid cancer cell line; assay: 72 hour growth-inhibition (cytotoxicity) assay, KB-31 cells; type: cell-based; settings: Homo sapiens
[4] = system: 1A9/A8, EpoA-resistant 1A9 cell line (β274 Thr→Ile); assay: 72 hour growth-inhibition (cytotoxicity) assay, 1A9/A8 cells; type: cell-based, human; settings: for IC50: Homo sapiens, 1A9; for RRp (relative resistance), 1A9/A8: IC50 of 1A9/A8 divided by IC50 of the parental cell line; for RAEpoB (relative activity), 1A9/A8: ratio of IC50 of EpoB to IC50 of the tested compound in the concurrent assay
[5] = system: 1A9 human ovarian cancer cell line; assay: 72 hour growth-inhibition (cytotoxicity) assay, 1A9 cells; type: cell-based; settings: for IC50: Homo sapiens, 1A9; for RAEpoB (relative activity), 1A9: ratio of IC50 of EpoB to IC50 of the tested compound in the concurrent assay
[6] = system: KB-8511, Taxol-resistant (Pgp-overexpression) KB cell line; assay: 72 hour growth-inhibition (cytotoxicity) assay, KB-8511 cells
Protocol: (§1) In addition, further cytotoxicity studies were carried out using a pair of drug-sensitive parental human epidermoid carcinoma cells (KB-31) and its Taxol™-resistant Pgp-overexpressing subline (KB-5811).

[7] = system: drug-sensitive and drug-resistant human cancer cell lines; assay: Cytotoxicity assays across the panel of cell lines (summary in words); type: cell-based; settings: summary of Tables 1A-1C
[8] = system: KB-8511, Taxol-resistant (Pgp-overexpression) KB cell line; settings: human, 72 h
Protocol: as §1

[9] = 72 hour growth inhibition, sulforhodamine-B staining, mean of 3-5 experiments ± SEM, read-out: 1A9/PTX10 IC50
[10] = KB 3-1, 72 h, read-out: KB-31 IC50
[11] = 72 hour growth inhibition, sulforhodamine-B staining, mean of 3-5 experiments ± SEM, read-out: 1A9/A8 IC50
[12] = 72 hour growth inhibition, sulforhodamine-B staining, mean of 3-5 independent experiments ± standard error of the mean, read-out: 1A9 IC50
[13] = read-out: KB-8511 IC50, 72 hour growth inhibition, methylene blue staining, mean of 3-5 experiments ± SEM
[14] = Table 2, tested epothilone, unit from Table 1A note a, read-out: IC50, 1A9/PTX10 (Table 2)
[15] = Table 2, tested epothilone, unit from Table 1A note a, read-out: IC50, 1A9/A8 (Table 2)
[16] = Table 2, tested epothilone, unit from Table 1A note a, read-out: IC50, 1A9 (Table 2)

SMILES | IC50 [1, 9] [nM] | IC50 [2] [nM] | IC50 [3, 10] [nM] | IC50 [4, 11] [nM] | RRp (relative resistance), 1A9/A8 [4] | IC50 [5, 12] [nM] | IC50 [6, 13] [nM] | cytotoxicity across the tested cell lines, in words [7] | RRp (relative resistance), A2780/AD10 [2] | IC50 [1, 14] [nM] | RRp (relative resistance), 1A9/PTX10 [1] | RAEpoB (relative activity), 1A9/PTX10 [1] | IC50 ([3]; KB 3-1, read-out: IC50, KB-31 (Table 2)) [nM] | IC50 [4, 15] [nM] | RAEpoB (relative activity), 1A9/A8 [4] | IC50 [5, 16] [nM] | RAEpoB (relative activity), 1A9 [5] | IC50 ([6]; read-out: IC50, KB-5811 (Table 2), Table 2, tested epothilone, cell line KB-5811, unit from Table 1A note a) [nM] | IC50 ([3]; KB 3-1, Table 2, tested epothilone, unit from Table 1A note a, read-out: IC50, KB-31 (Table 2)) [nM] | IC50 [8] [nM]
C/C(=C\c1ncnn1C)[C@@H]1C[C@@H]2O[C@]2(C)CCC[C@H](C)[C@H](O)[C@@H](C)C(=O)C(C)(C)[C@@H](O)CC(=O)O1 [Compound 9] | > 750 | > 750 | 382 ± 49.4 | 627 | 1.2 | 540 | > 1000 | significantly lower activities |  |  |  |  |  |  |  |  |  |  |  | 
C/C(=C\c1nccn1C)[C@@H]1C[C@@H]2O[C@]2(C)CCC[C@H](C)[C@H](O)[C@@H](C)C(=O)C(C)(C)[C@@H](O)CC(=O)O1 [Compound 8] | > 750 | 760 | 69.9 ± 5.31 | 242 | 2.5 | 95.5 ± 13.4 | > 1000 | significantly lower activities | 1.4 |  |  |  |  |  |  |  |  |  |  | 
C/C(=C\c1nc2ccccc2s1)[C@@H]1C[C@@H]2O[C@]2(C)CCC[C@H](C)[C@H](O)[C@@H](C)C(=O)C(C)(C)[C@@H](O)CC(=O)O1 [Compound 7] | 2.6 ± 2.5 | 707 | 0.21 ± 0.07 | 0.7 ± 0.4 | 3.7 | 0.19 ± 0.1 | 0.08 ± 0.04 | excellent cytotoxicity across the range of cell lines, being more potent than EpoB | 7.4 | 2.6 | 13.7 | 3.0 | 0.21 | 0.7 | 14.3 | 0.19 | 5.2 | 0.08 |  | 
C/C(=C\C#N)[C@@H]1C[C@@H]2O[C@]2(C)CCC[C@H](C)[C@H](O)[C@@H](C)C(=O)C(C)(C)[C@@H](O)CC(=O)O1 [Compound 21] | > 750 | > 150 | 346 ± 10.5 | > 750 |  | > 750 | > 1000 | not found active; also recorded: devoid of any significant cytotoxicity against any of the cell lines tested |  |  |  |  |  |  |  |  |  |  |  | 
CSCc1nc(/C=C(\C)[C@@H]2C[C@@H]3O[C@]3(C)CCC[C@H](C)[C@H](O)[C@@H](C)C(=O)C(C)(C)[C@@H](O)CC(=O)O2)cs1 [Compound 5] | 43.3 ± 12 | 82.2 ± 49.6 | 1.38 ± 0.05 | 18.6 ± 11.3 | 5.2 | 3.6 ± 1.4 | 1.97 ± 0.25 | less potent than EpoB, exhibited high potency against several of the tested cell lines | 15.2 |  | 12.0 |  |  |  |  |  |  |  |  | 
CSc1nc(/C=C(\C)[C@@H]2C[C@@H]3O[C@]3(C)CCC[C@H](C)[C@H](O)[C@@H](C)C(=O)C(C)(C)[C@@H](O)CC(=O)O2)cs1 [Compound 3, reference compound] |  |  |  |  |  |  |  |  |  | 0.26 |  | 14.2 |  | 1.3 | 5.0 | 0.17 | 1.8 |  | 0.11 | 0.07
C/C(=C\c1ccn(-c2ccccc2)n1)[C@@H]1C[C@@H]2O[C@]2(C)CCC[C@H](C)[C@H](O)[C@@H](C)C(=O)C(C)(C)[C@@H](O)CC(=O)O1 [Compound 15] | 25.8 ± 19.8 | 6.4 | 2.27 ± 0.16 | 4.8 ± 3.6 | 0.9 | 5.45 ± 3.7 | 1.62 ± 0.14 | somewhat less active | 107 |  | 4.7 |  |  |  |  |  |  |  |  | 
